Patent US6589970B2, “6-(aryl-amido or aryl-amidomethyl)-naphthalen-2-yloxy-acidic derivatives as inhibitors of plasminogen activator inhibitor type-1 (PAI-1)” (Wyeth, priority 2001, dated 2003)
Where a name gives a salt, the structure may show the parent alone.

Target: T1, recombinant human plasminogen activator inhibitor-1 (PAI-1) (Homo sapiens, UniProt P05121)
T1 construct: purchased Molecular Innovations, Royal Oak, Mich
Assay: Primary Screen for the PAI-1 Inhibition
Type: biochemical
Conditions: for % Inhib. 100 μM / inhibition at 100 µM: 100 μM test compound; for % Inhib. 25 μM / inhibition at 25 µM: 25 μM test compound; for inhibition at 25 µM: read-out: % Inhib. 25 μM; for inhibition at 100 µM: read-out: % Inhib. 100 μM
Description: Test compounds are dissolved in DMSO at a final concentration of 10 mM, then diluted 100× in physiologic buffer. The inhibitory assay is initiated by the addition of the test compound (1-100 μM final concentration, maximum DMSO concentration of 0.2%) in a pH 6.6 buffer containing 140 nM recombinant human plasminogen activator inhibitor-1 (PAI-1; Molecular Innovations, Royal Oak, Mich.). Following a 1 hour incubation at room temperature, 70 nM of recombinant human tissue plasminogen activator (tPA) is added, and the combination of the test compound, PAI-1 and tPA is incubated for an additional 30 minutes. Following the second incubation, Spectrozyme-tPA (American Diagnostica, Greenwich, Conn.), a chromogenic substrate for tPA, is added and absorbance read at 405 nm at 0 and 60 minutes. Relative PAI-1 inhibition is equal to the residual tPA activity in the presence of the test compound and PAI-1. Control treatments include the complete inhibition of tPA by PAI-1 at the molar ratio employed (2:1), and the absence of any effect of the test compound on tPA alone.

T1 sequence (P05121 24-402): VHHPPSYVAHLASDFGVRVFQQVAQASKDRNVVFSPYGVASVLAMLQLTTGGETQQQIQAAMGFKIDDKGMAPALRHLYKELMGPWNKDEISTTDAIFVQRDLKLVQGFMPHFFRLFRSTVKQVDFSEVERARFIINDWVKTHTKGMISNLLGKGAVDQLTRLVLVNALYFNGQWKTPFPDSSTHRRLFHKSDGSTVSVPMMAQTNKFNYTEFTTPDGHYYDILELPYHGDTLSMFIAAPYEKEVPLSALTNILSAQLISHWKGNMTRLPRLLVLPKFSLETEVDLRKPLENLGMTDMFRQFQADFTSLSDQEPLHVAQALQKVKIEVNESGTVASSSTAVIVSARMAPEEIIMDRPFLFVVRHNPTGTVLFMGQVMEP

| Structure (SMILES) | % Inhib. 100 μM | % Inhib. 25 μM | inhibition at 25 µM | inhibition at 100 µM |
| --- | --- | --- | --- | --- |
| O=C(O)COc1ccc2cc(CNC(=O)c3cc4ccccc4o3)ccc2c1 [Example 1] | 23% | – | – | – |
| CCCCc1oc2ccccc2c1C(=O)Nc1ccc2cc(OCC(=O)O)ccc2c1 [Example 4, {6-[(2-Butyl-benzofuran-3-carbonyl)-amino]-naphthalen-2-yloxy}-acetic acid sodium salt] | – | – | 3% | 66% |
| O=C(O)COc1ccc2cc(CNC(=O)c3cc(-c4ccc(Cl)cc4)oc3C(F)(F)F)ccc2c1 [Example 11, [6-({[5-(4-Chloro-phenyl)-2-trifluoromethyl-furan-3-carbonyl]-amino}-methyl)-naphthalen-2-yloxy]-acetic acid] | – | – | – | 32% |
| CCCc1c(C(=O)NCc2ccc3c(Br)c(OCC(=O)O)ccc3c2)cnn1-c1ccccc1 [Example 15, (1-Bromo-6-{[(1-phenyl-5-propyl-1H-pyrazole-4-carbonyl)-amino]-methyl}-naphthalen-2-yloxy)-acetic acid] | – | – | 5% | 92% |
| Cc1c(C(=O)N(C)Cc2ccc3c(Br)c(OCC(Cc4ccccc4)C(=O)O)ccc3c2)oc2ccccc12 (stereo not shown) [Example 42, Sodium; 2-benzyl-3-(1-bromo-6-{[methyl-(3-methyl-benzofuran-2-carbonyl)-amino]-methyl}-naphthalen-2-yloxy)-propionate] | – | – | 63% | 79% |
| CCCCc1oc2ccccc2c1C(=O)N(C)Cc1ccc2c(Br)c(OC(Cc3ccccc3)C(=O)O)ccc2c1 (stereo not shown) [Example 62, 2-(1-Bromo-6-{[(2-butyl-benzofuran-3-carbonyl)-methyl-amino]-methyl}naphthalen-2-yloxy)-3-phenyl-propionic acid] | – | – | 1% | 84% |
| CCCc1ccc(-c2ccc(C(=O)N(C)Cc3ccc4c(Br)c(OC(Cc5ccccc5)C(=O)O)ccc4c3)cc2)cc1 (stereo not shown) [Example 63, 2-(1-Bromo-6-{[methyl-(4′-propyl-biphenyl-4-carbonyl)-amino]-methyl}-naphthalen-2-yloxy)-3-phenyl-propionic acid] | – | – | 14% | 69% |
| CCCc1c(C(=O)N(C)Cc2ccc3c(Br)c(OC(Cc4ccccc4)C(=O)O)ccc3c2)cnn1-c1ccccc1 (stereo not shown) [Example 66, 2-(1-Bromo-6-{[methyl-(1-phenyl-5-propyl-1H-pyrazole-4-carbonyl)-amino]-methyl}-naphthalen-2-yloxy)-3-phenyl-propionic acid] | – | – | 46% | 95% |
| CCCc1c(C(=O)N(Cc2ccccc2)Cc2ccc3c(Br)c(OC(Cc4ccccc4)C(=O)O)ccc3c2)cnn1-c1ccccc1 (stereo not shown) [Example 72, 2-(6-{[Benzyl-(1-phenyl-5-propyl-1H-pyrozole-4-carbonyl)-amino]-methyl}-1-bromo-naphthalen-2-yloxy)-3-phenyl-propionic acid] | 68% | 56% | – | – |
| O=C(O)COc1ccc2cc(NC(=O)c3ccc(-c4cccc(C(F)(F)F)c4)o3)ccc2c1 [Example 74, (6-{[5-(3-Trifluoromethyl-phenyl)-furan-2-carbonyl]-amino}-naphthalen-2-yloxy)-acetic acid] | – | – | 20% | 59% |
| O=C(O)COc1ccc2cc(NC(=O)C3(c4ccc(Cl)cc4)CCCC3)ccc2c1 [Example 75, (6-{[1-(4-Chloro-phenyl)-cyclopentanecarbonyl]-amino}-naphthalen-2-yloxy)-acetic acid] | – | – | 1% | 55% |
| CC(C)(C)c1cc(C(=O)Nc2ccc3cc(OCC(=O)O)ccc3c2)cc(C(C)(C)C)c1 [Example 77, [6-(3,5-Di-tert-butyl-benzoylamino)-naphthalen-2yloxy]-acetic acid] | – | – | 27% | 51% |
| O=C(O)COc1ccc2cc(NC(=O)C3(c4ccc(Cl)cc4)CCC3)ccc2c1 [Example 80, (6-{[1-(4-Chloro-phenyl)-cyclobutanecarbonyl]-amino}-naphthalen-2-yloxy)-acetic acid] | – | – | – | 48% |

Continued, values first:

| % Inhib. 100 μM | % Inhib. 25 μM | inhibition at 25 µM | inhibition at 100 µM | Structure (SMILES) |
| --- | --- | --- | --- | --- |
| 52% | 21% | – | – | O=C(NCc1ccc2cc(OCc3nn[nH]n3)ccc2c1)c1cc2ccccc2o1 [Example 2] |
| – | – | 5% | 66% | CCCc1c(C(=O)NCc2ccc3cc(OCC(=O)O)ccc3c2)cnn1-c1ccccc1 [Example 12, (6-{[(1-phenyl-5-propyl-1H-pyrazole-4-carbonyl)-amino]-methyl}-naphthalen-2-yloxy)-acetic acid] |
| – | – | 5% | 52% | CCCc1c(C(=O)NCc2ccc3cc(OCC(=O)O)ccc3c2)cnn1-c1ccc(Cl)cc1 [Example 13, [6-({[1-(4-Chloro-phenyl)-5-propyl-1H-pyrazole-4-carbonyl]-amino}-methyl)-naphthalen-2-yloxy]-acetic acid] |
| – | – | 12% | 85% | O=C(O)COc1ccc2cc(CNC(=O)c3cnn(-c4ccc(Cl)cc4)c3C(F)(F)F)ccc2c1Br [Example 16, [1-Bromo-6-({[1-(4-chloro-phenyl)-5-trifluoromethyl-1H-pyrazole-4-carbonyl]-amino}-methyl)-naphthalen-2-yloxy]-acetic acid] |
| – | – | – | 32% | CCCCc1oc2ccccc2c1C(=O)NCc1ccc2c(Br)c(OCC(=O)O)ccc2c1 [Example 19, Sodium; (1-bromo-6-{[(2-butyl-benzofuran-3-carbonyl)-amino]-methyl}-naphthalen-2-yloxy)-acetate] |
| – | – | 26% | 72% | CCCCc1oc2ccccc2c1C(=O)N(CC)Cc1ccc2cc(OCc3nnn[nH]3)ccc2c1 [Example 35, 2-Butyl-benzofuran-3-carboxylic acid methyl-[6-(1H-tetrazol-5-ylmethoxy)-naphthalen-2ylmethyl]-methyl-amide] |
| – | – | 47% | 81% | CN(Cc1ccc2c(Br)c(OCc3nnn[nH]3)ccc2c1)C(=O)c1ccc(Oc2cc(Cl)cc(Cl)c2)o1 [Example 38, 5-(3,5-Dichloro-phenoxy)-furan-2-carboxylic acid [5-bromo-6-(1H-tetrazol-5-ylmethoxy)-naphthalen-2-ylmethyl]-methyl-amide] |
| – | – | 60% | 96% | CCCCc1c(C(=O)N(C)Cc2ccc3c(Br)c(OCC(Cc4ccccc4)C(=O)O)ccc3c2)oc2ccccc12 (stereo not shown) [Example 40, 2-Benzyl-3-(1-bromo-6-{[(3-butyl-benzofuran-2-carbonyl)-methyl-amino]-methyl}-naphthalen-2-yloxy)-propionic acid] |
| – | – | – | 29% | CCc1oc2ccccc2c1C(=O)NCc1ccc2c(Br)c(OC(Cc3ccccc3)C(=O)O)ccc2c1 (stereo not shown) [Example 58, 2-(1-Bromo-6-{[(2-ethyl-benzofuran-3-carbonyl)-amino]-methyl}-naphthalen-2-yloxy)-3-phenyl-propionic acid] |
| 44% | – | – | – | O=C(O)C(Cc1ccccc1)Oc1ccc2cc(CNC(=O)C3(c4ccc(Cl)cc4)CCCC3)ccc2c1Br (stereo not shown) [Example 59] |
| 30% | – | – | – | O=C(NCc1ccc2c(Br)c(OC(Cc3ccccc3)C(=O)O)ccc2c1)c1ccc(-c2cccc(C(F)(F)F)c2)o1 (stereo not shown) [Example 60] |
| – | – | 24% | 75% | CN(Cc1ccc2c(Br)c(OC(Cc3ccccc3)C(=O)O)ccc2c1)C(=O)c1ccc(C2CCCCC2)cc1 (stereo not shown) [Example 61, 2-(1-Bromo-6-{[(4cyclohexyl-benzoyl)-methyl-amino]-methyl}-naphthalen-2-yloxy)-3-phenyl-propionic acid] |
| – | – | 17% | 81% | CCCc1ccc(-c2ccc(C(=O)N(Cc3ccccc3)Cc3ccc4c(Br)c(OC(Cc5ccccc5)C(=O)O)ccc4c3)cc2)cc1 (stereo not shown) [Example 70, 2-(6-{[Benzyl-(4′-propyl-biphenyl-4-carbonyl)-amino]-methyl}-1-bromo-naphthalen-2-yloxy)-3-phenyl propionic acid] |
| 78% | 47% | – | – | O=C(O)C(Cc1ccccc1)Oc1ccc2cc(CN(Cc3ccccc3)C(=O)c3ccc(C4CCCCC4)cc3)ccc2c1Br (stereo not shown) [Example 71] |
| – | – | 23% | 65% | O=C(O)COc1ccc2cc(NC(=O)c3cc(-c4ccccc4Cl)oc3C(F)(F)F)ccc2c1 [Example 73, (6-{[5-(2-Chloro-phenyl)-2-trifluoromethyl-furan-3-carbonyl]-amino}naphthalen-2-yloxy)-acetic acid] |
| 54% | 0% | – | – | O=C(O)COc1ccc2cc(NC(=O)c3ccccc3OCc3ccccc3)ccc2c1 [Example 76] |
| – | – | 24% | 51% | O=C(O)COc1ccc2cc(NC(=O)c3cc(-c4ccc(-c5ccccc5)cc4)oc3C(F)(F)F)ccc2c1 [Example 78, {6-[(5-Biphenyl-4-yl-2-trifluoromethyl-furan-3-carbonyl)-amino]-naphthalen-2-yloxy}-acetic acid] |
| 50% | 19% | – | – | O=C(O)COc1ccc2cc(NC(=O)C3(c4ccc(Cl)cc4)CCCCC3)ccc2c1 [Example 79, (6-{[1-(4-Chloro-phenyl)-cyclohexanecarbonyl]-amino}-naphathalen-2-yloxy)-acetic acid] |
